Common to all, as to experiment: E. coli hemG growth inhibition by herbicide, AtPPO1 variant
What all share (type): cell-based
Common to all, as to settings: read-out: percentage growth inhibition

The target in one test is T1, AtPPO1 D448H (Arabidopsis thaliana, UniProt P55826, D448H).
T1 construct: expressed in transfected cells; host or cells: E. coli BL21(DE3) hemG (pET24a, T7 promoter)
T1 sequence (P55826 35-537 D448H): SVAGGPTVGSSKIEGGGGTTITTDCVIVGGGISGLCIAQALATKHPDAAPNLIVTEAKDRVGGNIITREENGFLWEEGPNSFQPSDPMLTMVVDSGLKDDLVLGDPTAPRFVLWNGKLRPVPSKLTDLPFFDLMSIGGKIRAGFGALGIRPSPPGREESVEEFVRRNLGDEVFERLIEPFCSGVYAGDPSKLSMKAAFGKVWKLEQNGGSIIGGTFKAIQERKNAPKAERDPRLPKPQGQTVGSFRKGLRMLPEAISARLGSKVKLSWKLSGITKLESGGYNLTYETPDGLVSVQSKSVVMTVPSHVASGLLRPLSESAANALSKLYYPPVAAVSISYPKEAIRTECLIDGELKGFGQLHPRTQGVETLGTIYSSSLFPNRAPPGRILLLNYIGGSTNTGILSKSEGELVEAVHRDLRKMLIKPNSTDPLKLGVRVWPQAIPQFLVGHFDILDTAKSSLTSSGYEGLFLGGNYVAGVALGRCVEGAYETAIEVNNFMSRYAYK
The essentials:
(§1)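 Read-out is OD600 at 24 h post inoculation, converted to percent growth inhibition relative to DMSO. The hemG-deleted BL21(DE3) host relied on the plasmid-borne AtPPO1 variant, induced with 0.1 mM IPTG, with 6.25 ppm herbicide 0 or E or 0.78 ppm herbicide B present at 37° C.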

In the next test the target is T2, AtPPO1 K270M (Arabidopsis thaliana, UniProt P55826, K270M).
T2 construct: expressed in transfected cells; host or cells: E. coli BL21(DE3) hemG, pET24a plasmid
T2 sequence (P55826 35-537 K270M): T1 sequence (P55826 35-537 D448H) with K236M, H414D
The essentials: as §1

In another test the target is T3, AtPPO1 T461Q (Arabidopsis thaliana, UniProt P55826, T461Q).
T3 construct: expressed in transfected cells; host or cells: E. coli BL21(DE3) hemG, pET24a plasmid
T3 sequence (P55826 35-537 T461Q): T1 sequence (P55826 35-537 D448H) with H414D, T427Q
The essentials: as §1

The target of the next test is T4, AtPPO1 Y426V (Arabidopsis thaliana, UniProt P55826, Y426V).
T4 construct: expressed in transfected cells; host or cells: E. coli BL21(DE3) hemG (pET24a, T7 promoter)
T4 sequence (P55826 35-537 Y426V): T1 sequence (P55826 35-537 D448H) with Y392V, H414D
The essentials:
as §1

Residue numbers refer to the chain shown, from its start.

In the case of `C#CCN1C(=O)C(F)(F)Oc2cc(F)c(-n3c(=O)n(C)c(=S)n(C)c3=O)cc21` [Herbicide B, trifludimoxazin], the inhibition at 0.78 ppm on AtPPO1 D448H stood at 31%; at AtPPO1 K270M, 28%; on AtPPO1 T461Q, 31%; at AtPPO1 Y426V, 5%.

On to `CCOC(=O)[C@]1(C)CC(c2cc(-n3c(=O)n(C)c(=S)n(C)c3=O)c(F)cc2Cl)=NO1` [Herbicide D, ethyl (5S)-3-[2-chloro-5-(3,5-dimethyl-2,6-dioxo-4-thioxo-1,3,5-triazinan-1-yl)-4-fluoro-phenyl]-5-methyl-4H-isoxazole-5-carboxylate], for which the inhibition at 6.25 ppm came to 26% at AtPPO1 D448H, 23% at AtPPO1 K270M, 22% at AtPPO1 T461Q and 16% on AtPPO1 Y426V.

For the compound `CC(C)N(C)S(=O)(=O)NC(=O)c1cc(-n2c(=O)cc(C(F)(F)F)n(C)c2=O)c(F)cc1Cl` [Herbicide E, saflufenacil], the inhibition at 6.25 ppm at AtPPO1 D448H worked out at 57%; at AtPPO1 K270M it was 29%; on AtPPO1 T461Q it was 35%; at AtPPO1 Y426V it was 7%.

As usually defined, the inhibition is the share of the control response that was lost under treatment.

The values above are taken from US20260297542A1, “HERBICIDE RESISTANT PLANTS” (SYNGENTA CROP PROTECTION AG, priority 2023, published 2026).
